The numbers were not newly measured in patent US7070816B2, “Methods for treating prostatic intraepithelial neoplasia with herbal compositions” (New Chapter, Inc., priority 2003, dated 2006), which cites them from elsewhere.

For data set [1], the system named is cyclooxygenase.
The target in data set [2] is T1, COX-2 (Homo sapiens, UniProt P35354).
T1 sequence (P35354 18-604): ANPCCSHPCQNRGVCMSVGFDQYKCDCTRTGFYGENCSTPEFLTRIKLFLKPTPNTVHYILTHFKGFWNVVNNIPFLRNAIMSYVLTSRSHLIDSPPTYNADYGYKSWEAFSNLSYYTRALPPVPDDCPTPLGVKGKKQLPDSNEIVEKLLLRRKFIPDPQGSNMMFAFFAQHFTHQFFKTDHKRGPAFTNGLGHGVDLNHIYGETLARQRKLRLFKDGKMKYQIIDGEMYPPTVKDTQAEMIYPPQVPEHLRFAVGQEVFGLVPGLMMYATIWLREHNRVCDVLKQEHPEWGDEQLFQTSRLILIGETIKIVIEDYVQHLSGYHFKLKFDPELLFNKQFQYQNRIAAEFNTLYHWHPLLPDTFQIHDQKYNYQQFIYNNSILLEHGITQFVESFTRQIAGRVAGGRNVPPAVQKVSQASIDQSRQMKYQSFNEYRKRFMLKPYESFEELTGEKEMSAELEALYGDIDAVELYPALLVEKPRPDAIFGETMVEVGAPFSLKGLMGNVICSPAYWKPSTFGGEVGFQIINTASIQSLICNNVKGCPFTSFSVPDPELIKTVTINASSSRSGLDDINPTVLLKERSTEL

The target in data set [3] is COX-1 (Homo sapiens, UniProt P23219).
Chain of COX-1 (P23219 24-599): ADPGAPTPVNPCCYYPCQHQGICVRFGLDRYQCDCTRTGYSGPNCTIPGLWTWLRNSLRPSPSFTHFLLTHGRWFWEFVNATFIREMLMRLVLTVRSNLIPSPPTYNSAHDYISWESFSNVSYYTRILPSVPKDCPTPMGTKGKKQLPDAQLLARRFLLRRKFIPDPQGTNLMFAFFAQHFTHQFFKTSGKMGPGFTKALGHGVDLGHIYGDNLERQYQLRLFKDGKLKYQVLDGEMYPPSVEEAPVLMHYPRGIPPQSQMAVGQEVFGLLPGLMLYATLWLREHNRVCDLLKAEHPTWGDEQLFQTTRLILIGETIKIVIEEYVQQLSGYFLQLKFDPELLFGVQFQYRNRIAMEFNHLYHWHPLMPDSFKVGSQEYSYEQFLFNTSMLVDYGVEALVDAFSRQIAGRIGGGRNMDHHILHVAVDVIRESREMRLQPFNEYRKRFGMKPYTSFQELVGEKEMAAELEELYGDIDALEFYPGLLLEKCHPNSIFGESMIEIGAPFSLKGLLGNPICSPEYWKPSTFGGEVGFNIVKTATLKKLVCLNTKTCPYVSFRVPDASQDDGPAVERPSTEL
Data set [4] deals with T2, 5-lipoxygenase (Homo sapiens, UniProt P09917).
T2 sequence (P09917 1-674): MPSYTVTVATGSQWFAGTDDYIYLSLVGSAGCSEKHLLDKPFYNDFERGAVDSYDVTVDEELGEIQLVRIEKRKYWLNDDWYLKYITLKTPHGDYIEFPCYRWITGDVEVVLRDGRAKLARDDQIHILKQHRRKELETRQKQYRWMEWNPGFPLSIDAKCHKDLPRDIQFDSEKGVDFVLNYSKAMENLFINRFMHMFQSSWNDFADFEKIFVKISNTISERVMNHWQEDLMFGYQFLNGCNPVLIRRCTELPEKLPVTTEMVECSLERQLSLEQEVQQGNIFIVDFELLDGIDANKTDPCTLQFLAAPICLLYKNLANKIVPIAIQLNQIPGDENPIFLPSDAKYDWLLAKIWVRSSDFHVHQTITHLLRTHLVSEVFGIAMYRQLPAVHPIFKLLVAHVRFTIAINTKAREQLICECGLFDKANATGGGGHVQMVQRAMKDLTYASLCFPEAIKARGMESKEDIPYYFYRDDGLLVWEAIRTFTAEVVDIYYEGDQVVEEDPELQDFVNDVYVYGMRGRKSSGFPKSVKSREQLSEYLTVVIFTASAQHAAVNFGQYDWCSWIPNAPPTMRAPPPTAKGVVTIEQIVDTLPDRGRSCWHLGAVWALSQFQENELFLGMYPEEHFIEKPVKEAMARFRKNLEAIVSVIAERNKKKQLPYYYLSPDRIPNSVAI

Regarding gingerols, the cyclooxygenase inhibition entry in data set [1] is “inhibit cyclooxygenase”.
Turning to `Oc1cc(O)c2c(c1)O[C@H](c1ccc(O)c(O)c1)[C@@H](O)C2` [(+)-catechin], in data set [2], the COX-2 inhibition entry was “COX-1 and COX-2 inhibitors”. Besides, the COX-1 inhibition entry in data set [3] was “COX-1 and COX-2 inhibitors”.
For shogaols, the cyclooxygenase inhibition result in data set [1] is “inhibit cyclooxygenase”.
With `COc1ccc2cc3[n+](cc2c1OC)CCc1cc2c(cc1-3)OCO2` [Berberine], in data set [2], the COX-2 inhibition result is “inhibit COX-2”. Further, the COX-1 inhibition result in data set [3] is reported as “without inhibiting COX-1 activity”.
Regarding `C[C@H]1[C@H](C)CC[C@]2(C(=O)O)CC[C@]3(C)C(=CC[C@@H]4[C@@]5(C)CC[C@H](O)C(C)(C)[C@@H]5CC[C@]43C)[C@H]12` [Ursolic acid], the COX-2 inhibition entry in data set [2] is reported as “significant COX-2 inhibitory effect”.
Take `C=CCc1ccc(O)c(OC)c1` [Eugenol]: in data set [4], the 5-lipoxygenase inhibition is given as 5-lipoxygenase inhibitor.
Consider `O=C(O)c1ccccc1O` [salicylic acid], for which the COX-2 inhibition result in data set [2] was “COX-2 inhibitor”.
